Measurements published in patent publication US5208223A, “Phosphocholine derivative inhibitors of phospholipase A2” (American Cyanamid Company, priority 1992, dated 1993).
Values joined by “and” are separate entries in the source; they are usually repeats but may differ in a detail not shown here. Equal entries are not always repeated. Structures can show the parent of a compound that is named as a salt.

Key:
Format in all cases: biochemical
[1] = target: T1, porcine pancreatic PLA2 (Sus scrofa, UniProt P00592); assay: MHPLA2 assay: in vitro porcine pancreatic phospholipase A2, mixed micelle design, [s]=10 μm; settings: for % Inh. / inhibition at 20 µg/mL: subs. con. 10; for inhibition at 20 µg/mL: dose 20 μ/ml; for inhibition at 25 µg/mL / inhibition at 10 µg/mL: subs. con. 10, read-out: % Inh.; for IC50: subs. con. 10, read-out: IC50 (converted)
T1 construct: purchased Sigma
Procedure: (§1) Phospholipase A2 activity was measured by a radiochemical assay in which labeled synthetic phosphatidylcholine substrate is converted by porcine pancreatic PLA2 to free radiolabeled arachidonate and lyso PC. Radiolabeled arachidonate is extracted from the reaction mixture and separated from unreacted substrate by column chromatography or TLC. Radioactivity (cpm) in samples is quantitated by liquid scintillation counting. Specific details are as follows:
(§2) Labeled substrate(1-stearyl-2-^3 H-arachidonylphosphatidylcholine; Amersham, sp. act. 84 (uCi/mmole, 0.025 to 0.2 uCi/assay tube and unlabeled substrates (Avanti), in sufficient quantity to give 20,000 cpm to 50,000 cpm and 10 μM to 1,000 μM final concentration/assay tube are dried under a stream of nitrogen. The PLA2 and mPLA2 assays utilized a […] substrate concentration. The mHPLA2 and HPLA2 assays (vida infra) utilized a 10 μM substrate concentration and the SmPLA2 assay utilized a substrate concentration ranging from 100 to 1000 μm. The substrate is then redissolved in 0.1M tris-HCl buffer, pH 9.0 containing 10 mM CaCl2 and 10 mM Na taurocholate detergent. The mixture is sonicated in a Kontes Sonifier to yield a homogeneous dispersion. The "mixed" micellar substrate is clear. An aliquot is reserved for a cpm count (total substrate). The total reaction volume is 500 μL; siliconized glassware or plasticware is used throughout. Enzyme (Sigma, sp. act.>690 U/mg protein and preferably 900 U/mg protein) is diluted 1:750 or 1:1000 in 0.1M tris-HCl buffer, pH 9.0 (without Ca^++ and detergent). Enzyme dilution depends on substrate concentration and required enzyme concentration.
(§3) The substrate in buffer is kept on ice until the reaction is started. The reaction is started by adding 10 μL of diluted enzyme solution to 490 μL of micellar substrate solution. Samples are incubated in a 37° C. water bath for 15 minutes with gentle mixing. The reaction is terminated by the addition of 100 μL of 1M fresh trichloroacetic acid (TCA) solution and chilling the tubes on ice for 30 minutes.
(§4) Samples (600 μL) are extracted with 3 ml CHCl3 /MeOH (2:1) for thin layer chromatography or in hexane/ether (9:1) for column chromatography. The phases are separated by gentle centrifugation at 700 rpm×5'. The organic phase is recovered.
(§5) Labeled arachidonate extracted with CHCl3 /MeOH is separated on silica gel G TLC plates (Analtech). Twenty μL of a 2 mg/ml internal standard solution of arachidonic acid (Sigma) is combined with 2-3 ml of the organic phase. The entire mixture is dried under nitrogen and redissolved in 50 μL of CHCl3 /MeOH (2:1). A 20 μL sample is counted in 10 ml of Beckman Redi-solv HP and spotted on silica gel G plates. The solvent system used to develop the plate is CHCl3 /MeOH/13.5N NH3 /H2 O (70:30:4:1). Plates are developed in a glass chamber for 1-11/2 hours, air dried, and the spots visualized in an iodine vapor chamber. Standards of phosphatidylcholine, lyso PC, and arachidonic acid (Sigma) are made as 2 mg/ml stocks in CHCl3 /MeOH (2:1) and spotted on plates. Spots corresponding to arachidonate and phospholipid are scraped and counted in 10 ml Beckman Redi-Solv HP scintillation fluid.
(§6) Samples are extracted with hexane/ether and the upper organic phase recovered. An aliquot is applied to a Silicar CC4 (Malincrodt) column. Columns are prepared using 1 ml of a 1:1 slurry of silicar CC4 in hexane/ether in a Pasteur pipet (approx. 2 cm height). Columns are rinsed with 500 μL of hexane/ether before adding the sample (300-600 μL) to the column. Columns are eluted with a total of 6 ml of hexane/ether. The 6 ml sample is counted in 10 ml of Beckman Redi-Solv HP scintillation fluid.
(§7) or the phospholipase A2 assay, compounds are prepared as 1 mg/ml stock solutions in MeOH and diluted appropriately in PBS. […]

[2] = target: T1, porcine pancreatic PLA2; assay: PLA2 assay: in vitro porcine pancreatic phospholipase A2, preincubation of drug+enzyme, substrate 2 nM; settings: subs. con. 2
Procedure: as §1, §2, §3, §4, §5, §6
or the phospholipase A2 assay, compounds are prepared as 1 mg/ml stock solutions in MeOH and diluted appropriately in PBS.

[3] = target: T1, porcine pancreatic PLA2; assay: MPLA2 assay: in vitro porcine pancreatic phospholipase A2, mixed micelle design, substrate 2 nM
Procedure: as §1, §2, §3, §4, §5, §6, §7

[4] = dose 10 μ/ml, preincubation, read-out: % Inh.
[5] = dose 20 μ/ml, preincubation, read-out: % Inh.
[6] = preincubation, read-out: IC50 (converted)
[7] = dose 10 μ/ml, preincubation, read-out: % Inh. Avg.
[8] = dose 10 μ/ml, subs. con. 2, read-out: % Inh.
[9] = dose 20 μ/ml, subs. con. 2, read-out: % Inh.
[10] = dose 25 μ/ml, subs. con. 2, read-out: % Inh.
[11] = dose 25 μ/ml, subs. con. 2, read-out: % Inh. Avg.

T1 sequence (P00592 23-146): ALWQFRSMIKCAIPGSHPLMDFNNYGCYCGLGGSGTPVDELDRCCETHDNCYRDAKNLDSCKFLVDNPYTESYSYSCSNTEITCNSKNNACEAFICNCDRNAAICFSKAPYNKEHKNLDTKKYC

Row | SMILES | inhibition at 25 µg/mL ([1]; dose 25 μ/ml) [%] | inhibition at 10 µg/mL [2, 4] [%] | inhibition at 20 µg/mL [2, 5] [%] | IC50 [2, 6] [µM] | inhibition at 10 µg/mL [2, 7] [%] | inhibition at 25 µg/mL [3, 10] [%] | inhibition at 20 µg/mL [1] [%] | inhibition at 10 µg/mL [3, 8] [%] | inhibition at 20 µg/mL [3, 9] [%] | inhibition at 25 µg/mL [3, 11] [%] | further results
1 | CCCCCCCCCCCCCCCC[C@]1(COP(=O)([O-])OCC[N+](C)(C)C)CC(=O)N1 [(2R)-2-[[[(2-Hexadecyl-4-oxo-2-azetidinyl)methoxy]hydroxyphosphinyl]oxy]-N,N,N-trimethylethanaminium, hydroxide, inner salt] | 26 | 82 | 79 | 2.85 | – | – | 0 | – | – | – | % Inh. ([1]; dose 10 μ/ml): STIM; % Inh. ([3]; dose 10 μ/ml, subs. con. 2): STIM; % Inh. ([3]; dose 20 μ/ml, subs. con. 2): STIM
2 | CCCCCCCCCCCCCCCCSCCCOP(=O)([O-])OCC[N+](C)(C)C [3,5-Dioxa-9-thia-4-phosphapentacosan-1-aminium, 4-hydroxy-N,N,N-trimethyl-,hydroxide, inner salt, 4-oxide] | – | 54 | 64 | 12.9 | 4.5 | 74 | – | 46 | 83 | 80 | % Inh. ([1]; dose 25 μ/ml): STIM; IC50 ([3]; subs. con. 2): 16 µM
3 | CCCCCCCCCCCCCCCCOCC(COP(=O)([O-])OCC[N+](C)(C)C)COP(=O)(Oc1ccccc1)Oc1ccccc1 (stereo not shown) [4-[(Hexadecyloxy)methyl]-7-hydroxy-N,N,N-trimethyl-1,1-diphenoxy-2.6.8 trioxa-1.7-diophosphadecan-10-aminium, hydroxide, inner salt, 1,7-dioxide] | – | – | – | – | – | – | – | – | – | – | % Inh. ([1]; dose 25 μ/ml): 33%; IC50 ([2]; IC50, preincubation): 6.59 µM; % Inh. ([2]; dose 10 μ/ml, preincubation): 75%; % Inh. ([2]; dose 20 μ/ml, preincubation): 85%; % Inh. ([3]; dose 25 μ/ml, subs. con. 2): 62% and 97%; % Inh. Avg. ([3]; dose 25 μ/ml, subs. con. 2): 79%
4 | CCCCCCCCCCCCCCCCOCC(COP(=O)([O-])OCC[N+](C)(C)C)CP(=O)(OCC)OCC (stereo not shown) | 45 | 71 | 81 | 8.12 | 74 | – | 44 | 36 | 60 | – | inhibition at 10 µg/mL ([1]; dose 10 μ/ml): 18%; IC50 [1]: 91.3 µM and 265 µM; IC50 ([3]; subs. con. 2): 27.3 µM
5 | CCCCCOCC(COP(=O)([O-])OCC[N+](C)(C)C)OP(=O)(O)OCCCCC (single isomer, unassigned; less polar) [3,5,8,10-Tetraoxa-4,9-diphosphapentadecan-1-aminium, 4,9-dihydroxy-N,N,N-trimethyl-7-[(pentyloxy)methyl]-, hydroxide, 4-(inner salt), 4,9-dioxide, less polar isomer] | 12 | 20 | 17 | – | – | – | – | – | – | – | % Inh. ([3]; dose 25 μ/ml, subs. con. 2): STIM
6 | CCCCCCCCCCCCCCCC[S+]([O-])CCCOP(=O)([O-])OCC[N+](C)(C)C (stereo not shown) [4-Hydroxy-N,N,N-trimethyl-3,5-dioxa-9-thia-4-phosphapentacosan-1-aminium, hydroxide, inner salt, 4.9-dioxide] | 16 | 59 | 82 | 12.5 | 61 | 68 | – | – | – | 71 | –
7 | CCCCCCCCCCCCCCCCOCC(COP(=O)([O-])OCC[N+](C)(C)C)CB(O)O (stereo not shown) [7-(Boronomethyl)-4-hydroxy-N,N,N-trimethyl-3,5,9-trioxa-4-phosphapentacosan-1-aminium, hydroxide, inner salt, 4-oxide] | 9 | 57 | 77 | 10.7 | – | – | – | – | – | 44 | –

Now from value to compound, other results behind:

Row | inhibition at 25 µg/mL ([1]; dose 25 μ/ml) [%] | inhibition at 10 µg/mL [2, 4] [%] | inhibition at 20 µg/mL [2, 5] [%] | IC50 [2, 6] [µM] | inhibition at 10 µg/mL [2, 7] [%] | inhibition at 25 µg/mL [3, 10] [%] | SMILES | inhibition at 20 µg/mL [1] [%] | inhibition at 10 µg/mL [3, 8] [%] | inhibition at 20 µg/mL [3, 9] [%] | inhibition at 25 µg/mL [3, 11] [%] | further results
8 | 24 | 65 | 88 | 9.54 | 69 | – | CCCCCCCCCCCCCCCCS(=O)(=O)CCCOP(=O)([O-])OCC[N+](C)(C)C [4-Hydroxy-N,N,N-trimethyl-3,5-dioxa-9-thia-4-phosphapentacosan-1-aminium, hydroxide, inner salt, 4.9.9-trioxide] | 19 | 24 | 62 | – | inhibition at 10 µg/mL ([1]; dose 10 μ/ml): 0%; IC50 [1]: 121 µM; IC50 ([3]; subs. con. 2): 37.2 µM
9 | 16 | 57 | 60 | 6.73 | – | 65 | CCCCCCCCCCCCCCCCC#CCC(COCCCCCCCCCCCCCCCC)COP(=O)([O-])OCC[N+](C)(C)C (stereo not shown) [7-(2-Nonadecynyl)-4-hydroxy-N,N,N-trimethyl-3,5,9-trioxa-4-phosphapentacosan-1-aminium, hydroxide, inner salt, 4-oxide] | – | – | – | – | –
10 | 35 | – | 24 | – | – | 93 | CCCCCCCCCCCCCCCCCC(=O)NCC(CO)COCCCCCCCCCCCCCCCC (stereo not shown) [N-[3-(Hexadecyloxy)-2-hydroxymethyl)propyl]octadecanamide] | – | – | – | – | inhibition at 25 µg/mL ([2]; dose 25 μ/ml, preincubation, read-out: % Inh.): 93%
11 | 19 | 9 | 82 | 2.99 | 57 | 80 | CCCCCCCCCCCCCCCCOCC(COP(=O)([O-])OCC[N+](C)(C)C)CS(=O)(=O)CCCCCCCCCCCCCCCC (stereo not shown) [7-[(Hexadecylsulfonyl)methyl]-4-hydroxy-N,N,N-trimethyl-3,5,9-trioxa-4-phosphapentacosan-1-aminium, hydroxide, inner salt, 4-oxide] | – | – | – | 72 | –
12 | 0 | 61 | 61 | 7.1 | – | 25 | CCCCCCCCCCCCCCCCOCC(COP(=O)([O-])OCC[N+](C)(C)C)CC(=O)C(=O)CCCCCCCCCCCCCCCC (stereo not shown) [7-(2,3-Dioxononadecyl)-4-hydroxy-N,N,N-trimethyl-3,5,9-trioxa-4-phosphapentacosan-1-aminium, hydroxide, inner salt, 4-oxide] | – | – | – | – | –
13 | 8 | 38 | 41 | – | – | 80 | CCCCCCCCCCCCCCCCOCC(COP(=O)([O-])OCC[N+](C)(C)C)CC(=O)C(F)(F)CCCCCCCCCCCCCCCC (stereo not shown) [3,5,9-Trioxa-4-phosphapentacosan-1-aminium, 7-(3,3-difluoro-2-oxononadecyl)-4-hydroxy-N,N,N-trimethyl-, hydroxide, inner salt, 4-oxide] | 9 | 88 | 89 | – | inhibition at 10 µg/mL ([1]; dose 10 μ/ml): 0%
